Test system: 317291-083-R-J1-PDC complex spheroid growth
Assay: Anticancer human tumor 317291-083-R-J1-PDC patient-derived soft tissue sarcoma cell line growth inhibition [Asc]
Settings: for IC50: curve of first compound; for viability, T/C: stronger effect = lower value
Outline: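 Concentration series start at each agent's clinical Cmax, or at 10 microM when none is established, and drop in half-log steps; agents are applied alone or together to complex spheroids built with HUVEC and hMSC.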

[1] = second compound 0.0316 µM, first compound 0.00316 µM
[2] = second compound 0.0316 µM, first compound 0.01 µM
[3] = second compound 0.0316 µM, first compound 0.0316 µM
[4] = second compound 0.0316 µM, first compound 0.1 µM
[5] = second compound 0.0316 µM, first compound 0.316 µM
[6] = second compound 0.0316 µM, first compound 1 µM
[7] = second compound 0.1 µM, first compound 0.00316 µM
[8] = second compound 0.1 µM, first compound 0.01 µM
[9] = second compound 0.1 µM, first compound 0.0316 µM
[10] = second compound 0.1 µM, first compound 0.1 µM
[11] = second compound 0.1 µM, first compound 0.316 µM
[12] = second compound 0.1 µM, first compound 1 µM
[13] = second compound 0.316 µM, first compound 0.00316 µM
[14] = second compound 0.316 µM, first compound 0.01 µM
[15] = second compound 0.316 µM, first compound 0.0316 µM
[16] = second compound 0.316 µM, first compound 0.1 µM
[17] = second compound 0.316 µM, first compound 0.316 µM
[18] = second compound 0.316 µM, first compound 1 µM
[19] = second compound 1 µM, first compound 0.00316 µM
[20] = second compound 1 µM, first compound 0.01 µM
[21] = second compound 1 µM, first compound 0.0316 µM
[22] = second compound 1 µM, first compound 0.1 µM
[23] = second compound 1 µM, first compound 0.316 µM
[24] = second compound 1 µM, first compound 1 µM
[25] = second compound 3.16 µM, first compound 0.00316 µM
[26] = second compound 3.16 µM, first compound 0.01 µM
[27] = second compound 3.16 µM, first compound 0.0316 µM
[28] = second compound 3.16 µM, first compound 0.1 µM
[29] = second compound 3.16 µM, first compound 0.316 µM
[30] = second compound 3.16 µM, first compound 1 µM
[31] = second compound 10 µM, first compound 0.00316 µM
[32] = second compound 10 µM, first compound 0.01 µM
[33] = second compound 10 µM, first compound 0.0316 µM
[34] = second compound 10 µM, first compound 0.1 µM
[35] = second compound 10 µM, first compound 0.316 µM
[36] = second compound 10 µM, first compound 1 µM
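Further: compound exposure lasted seven days after spheroids formed for three days.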
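Wherever viability, T/C is given: 100% = DMSO vehicle control wells.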

CCN1CCN(Cc2ccc(Nc3ncc(F)c(-c4cc(F)c5nc(C)n(C(C)C)c5c4)n3)nc2)CC1 + Cc1c(S(C)(=O)=O)c(-c2cc(F)cc(N3CCN(c4ccc(NS(=O)(=O)c5ccc(NC(CCN6CCC(C(=O)OCCCP(=O)(O)O)CC6)CSc6ccccc6)c(S(=O)(=O)C(F)(F)F)c5)cc4)CC3)c2)c(-c2ccc(Cl)cc2)n1C(C)C
IC50 (second compound 0.0316 µM): 0.871 µM | IC50 (second compound 0.1 µM): 0.647 µM | IC50 (second compound 0.316 µM): 0.402 µM | IC50 (second compound 1 µM): 0.373 µM | IC50 (second compound 3.16 µM): 0.242 µM | IC50 (second compound 10 µM): 0.372 µM | viability, T/C [1]: 97.4% | viability, T/C [2]: 105% | viability, T/C [3]: 87% | viability, T/C [4]: 87.2% | viability, T/C [5]: 70% | viability, T/C [6]: 46.8% | viability, T/C [7]: 113% | viability, T/C [8]: 85.7% | viability, T/C [9]: 90.4% | viability, T/C [10]: 74% | viability, T/C [11]: 63.6% | viability, T/C [12]: 41% | viability, T/C [13]: 94.1% | viability, T/C [14]: 80.5% | viability, T/C [15]: 77.8% | viability, T/C [16]: 62.1% | viability, T/C [17]: 66.6% | viability, T/C [18]: 26.7% | viability, T/C [19]: 87.2% | viability, T/C [20]: 88% | viability, T/C [21]: 67.8% | viability, T/C [22]: 88.2% | viability, T/C [23]: 54% | viability, T/C [24]: 25.9% | viability, T/C [25]: 75.8% | viability, T/C [26]: 80.5% | viability, T/C [27]: 73.5% | viability, T/C [28]: 63.7% | viability, T/C [29]: 46% | viability, T/C [30]: 24.9% | viability, T/C [31]: 82.7% | viability, T/C [32]: 90.5% | viability, T/C [33]: 96.3% | viability, T/C [34]: 78.7% | viability, T/C [35]: 54.6% | viability, T/C [36]: 25.7%

NC(=O)C(=Cn1cnc(-c2cc(C(F)(F)F)cc(C(F)(F)F)c2)n1)c1cncnc1 + Cc1c(S(C)(=O)=O)c(-c2cc(F)cc(N3CCN(c4ccc(NS(=O)(=O)c5ccc(NC(CCN6CCC(C(=O)OCCCP(=O)(O)O)CC6)CSc6ccccc6)c(S(=O)(=O)C(F)(F)F)c5)cc4)CC3)c2)c(-c2ccc(Cl)cc2)n1C(C)C
IC50 (second compound 0.0316 µM): 0.0195 µM | IC50 (second compound 0.1 µM): 0.0263 µM | IC50 (second compound 0.316 µM): 0.0155 µM | IC50 (second compound 1 µM): 0.0178 µM | IC50 (second compound 3.16 µM): 0.0144 µM | IC50 (second compound 10 µM): 0.0242 µM | viability, T/C (second compound 0.0316 µM, first compound 0.000949 µM): 105% | viability, T/C (second compound 0.0316 µM, first compound 0.003 µM): 73.8% | viability, T/C (second compound 0.0316 µM, first compound 0.00949 µM): 71.2% | viability, T/C (second compound 0.0316 µM, first compound 0.03 µM): 47.7% | viability, T/C (second compound 0.0316 µM, first compound 0.0949 µM): 3.73% | viability, T/C (second compound 0.0316 µM, first compound 0.3 µM): 1.57% | viability, T/C (second compound 0.1 µM, first compound 0.000949 µM): 98.8% | viability, T/C (second compound 0.1 µM, first compound 0.003 µM): 94.7% | viability, T/C (second compound 0.1 µM, first compound 0.00949 µM): 72.6% | viability, T/C (second compound 0.1 µM, first compound 0.03 µM): 53.8% | viability, T/C (second compound 0.1 µM, first compound 0.0949 µM): 4.66% | viability, T/C (second compound 0.1 µM, first compound 0.3 µM): 0.74% | viability, T/C (second compound 0.316 µM, first compound 0.000949 µM): 99.6% | viability, T/C (second compound 0.316 µM, first compound 0.003 µM): 114% | viability, T/C (second compound 0.316 µM, first compound 0.00949 µM): 59.6% | viability, T/C (second compound 0.316 µM, first compound 0.03 µM): 31.9% | viability, T/C (second compound 0.316 µM, first compound 0.0949 µM): 1.71% | viability, T/C (second compound 0.316 µM, first compound 0.3 µM): 0.54% | viability, T/C (second compound 1 µM, first compound 0.000949 µM): 89.3% | viability, T/C (second compound 1 µM, first compound 0.003 µM): 88.8% | viability, T/C (second compound 1 µM, first compound 0.00949 µM): 69.8% | viability, T/C (second compound 1 µM, first compound 0.03 µM): 33.5% | viability, T/C (second compound 1 µM, first compound 0.0949 µM): 5.89% | viability, T/C (second compound 1 µM, first compound 0.3 µM): 0.53% | viability, T/C (second compound 3.16 µM, first compound 0.000949 µM): 74.7% | viability, T/C (second compound 3.16 µM, first compound 0.003 µM): 76.1% | viability, T/C (second compound 3.16 µM, first compound 0.00949 µM): 59.4% | viability, T/C (second compound 3.16 µM, first compound 0.03 µM): 31.6% | viability, T/C (second compound 3.16 µM, first compound 0.0949 µM): 2.57% | viability, T/C (second compound 3.16 µM, first compound 0.3 µM): 0.29% | viability, T/C (second compound 10 µM, first compound 0.000949 µM): 105% | viability, T/C (second compound 10 µM, first compound 0.003 µM): 118% | viability, T/C (second compound 10 µM, first compound 0.00949 µM): 84.4% | viability, T/C (second compound 10 µM, first compound 0.03 µM): 44.5% | viability, T/C (second compound 10 µM, first compound 0.0949 µM): 1.64% | viability, T/C (second compound 10 µM, first compound 0.3 µM): 0.33%

O=C(c1ccc(F)c(F)c1Nc1ccc(I)cc1F)N1CC(O)([C@@H]2CCCCN2)C1 + Cc1c(S(C)(=O)=O)c(-c2cc(F)cc(N3CCN(c4ccc(NS(=O)(=O)c5ccc(NC(CCN6CCC(C(=O)OCCCP(=O)(O)O)CC6)CSc6ccccc6)c(S(=O)(=O)C(F)(F)F)c5)cc4)CC3)c2)c(-c2ccc(Cl)cc2)n1C(C)C
IC50 (second compound 0.0316 µM): 0.419 µM | IC50 (second compound 0.1 µM): 0.344 µM | IC50 (second compound 0.316 µM): 0.291 µM | IC50 (second compound 1 µM): 0.443 µM | IC50 (second compound 3.16 µM): 0.322 µM | IC50 (second compound 10 µM): 0.319 µM | viability, T/C [1]: 98.2% | viability, T/C [2]: 96.5% | viability, T/C [3]: 99.2% | viability, T/C [4]: 97.7% | viability, T/C [5]: 60.5% | viability, T/C [6]: 17.5% | viability, T/C [7]: 85.2% | viability, T/C [8]: 81.6% | viability, T/C [9]: 72.2% | viability, T/C [10]: 111% | viability, T/C [11]: 52.9% | viability, T/C [12]: 13.2% | viability, T/C [13]: 85% | viability, T/C [14]: 76.7% | viability, T/C [15]: 75.3% | viability, T/C [16]: 103% | viability, T/C [17]: 47.4% | viability, T/C [18]: 10.6% | viability, T/C [19]: 76.7% | viability, T/C [20]: 85.5% | viability, T/C [21]: 72.6% | viability, T/C [22]: 73% | viability, T/C [23]: 67.3% | viability, T/C [24]: 11.2% | viability, T/C [25]: 74.9% | viability, T/C [26]: 72.7% | viability, T/C [27]: 73% | viability, T/C [28]: 79.4% | viability, T/C [29]: 50.7% | viability, T/C [30]: 9.52% | viability, T/C [31]: 76.9% | viability, T/C [32]: 92% | viability, T/C [33]: 73% | viability, T/C [34]: 97.9% | viability, T/C [35]: 50.2% | viability, T/C [36]: 16.8%

— PubChem BioAssay AID1963427 (Molecular Pharmacology Branch, DTP, NCI, 2024)
